Measurements as given in ChEMBL document CHEMBL4609974, “Triazole derivatives and their antiplasmodial and antimalarial activities” (Eur J Med Chem, 2019).
≈ marks a conversion by molar mass, not a printed value.

Legend:
[1] = test system: Plasmodium falciparum; experiment: Antimalarial activity against chloroquine-resistant Plasmodium falciparum W2; assay type: functional, organism-based
[2] = test system: Plasmodium falciparum; experiment: Antimalarial activity against chloroquine-sensitive Plasmodium falciparum D6; assay type: functional, organism-based
[3] = test system: Plasmodium falciparum; experiment: Antimalarial activity against chloroquine-sensitive Plasmodium falciparum 3D7; assay type: functional, organism-based
[4] = test system: Plasmodium falciparum; experiment: Antimalarial activity against chloroquine-resistant Plasmodium falciparum K1; assay type: functional, organism-based
[5] = test system: Enterococcus faecalis; experiment: Antimicrobial activity against Enterococcus faecalis; assay type: functional
[6] = test system: Staphylococcus aureus; experiment: Antimicrobial activity against Staphylococcus aureus; assay type: functional
[7] = test system: Plasmodium falciparum; experiment: Antimalarial activity against […] Plasmodium falciparum W2; assay type: functional, organism-based
[8] = test system: Plasmodium falciparum; experiment: Antimalarial activity against chloroquine-resistant Plasmodium falciparum […]; assay type: functional, organism-based
[9] = test system: PC-3; experiment: Cytotoxicity against human PC3 cells assessed as reduction in cell viability; assay type: functional, cell-based
[10] = Selectivity index, ratio of CC50 for human MRC5 cells assessed as reduction in cell viability to MIC for chloroquine-resistant Plasmodium falciparum K1; assay type: toxicity; details: read-out: Selectivity Index
[11] = Selectivity index, ratio of CC50 for human MRC5 cells assessed as reduction in cell viability to MIC for […]; assay type: toxicity; details: read-out: Selectivity Index
[12] = test system: MRC5; experiment: Cytotoxicity against human MRC5 cells assessed as reduction in cell viability; assay type: functional

Compound: Clc1ccc2c(NCCn3cc(COc4ccc5ccccc5c4)nn3)ccnc2c1
- IC50 [1]: 0.9 to 11.5 µM
- IC50 [2]: 0.9 to 11.5 µM

Compound: COc1ccc2cc3[n+](cc2c1OCc1cn(-c2ccc(S(=O)(=O)Nc4ccc(F)cc4)cc2)nn1)CCc1cc2c(cc1-3)OCO2
- IC50 [3]: 0.142 to 28 µM

Compound: Cc1ccc(-n2cc(CNc3ccc4nc(-c5ccc(F)cc5)c(-c5ccc(F)cc5)nc4c3)nn2)cc1
- IC50 [4]: 7.1 to 153 µM

Compound: Cc1cccc(OCc2cn(CCNc3ccnc4cc(Cl)ccc34)nn2)c1
- IC50 [1]: 0.9 to 11.5 µM
- IC50 [2]: 0.9 to 11.5 µM

Compound: COc1ccc2cc3[n+](cc2c1OCc1cn(-c2ccc(S(=O)(=O)Nc4ccccc4)cc2)nn1)CCc1cc2c(cc1-3)OCO2
- IC50 [3]: 0.142 to 28 µM

Compound: Clc1ccc2c(NCCn3cc(COc4c(Cl)cccc4Cl)nn3)ccnc2c1
- IC50 [1]: 0.9 to 11.5 µM
- IC50 [2]: 0.9 to 11.5 µM

Compound: OCc1cn(CCNc2ccnc3cc(Cl)ccc23)nn1
- IC50 [1]: 0.9 to 11.5 µM
- IC50 [2]: 0.9 to 11.5 µM

Compound: Clc1ccc(OCc2cn(CCNc3ccnc4cc(Cl)ccc34)nn2)cc1
- IC50 [1]: 0.9 to 11.5 µM
- IC50 [2]: 0.9 to 11.5 µM

Compound: CC[C@H]1OC(=O)C[C@@H](O)[C@H](C)C(O[C@@H]2O[C@H](C)[C@@H](O)[C@H](N(C)C)[C@H]2O)C(CC=O)C[C@@H](C)C(=N\OCc2cn(-c3cnc4ccccc4c3)nn2)/C=C/C(C)=C/[C@@H]1CO[C@@H]1O[C@H](C)[C@@H](O)[C@@H](OC)[C@H]1OC (stereo not given in full)
- MIC [5]: 0.5 to 1 µg/mL (≈ 0.502 to 1 µM)
- IC50 [4]: 2 µg/mL
- MIC [6]: 0.5 to 1 µg/mL (≈ 0.502 to 1 µM)

Compound: Cc1cc(OCc2cn(CCNc3ccnc4cc(Cl)ccc34)nn2)ccc1Cl
- IC50 [1]: 0.9 to 11.5 µM
- IC50 [2]: 0.9 to 11.5 µM

Compound: c1ccc(-c2nc3ccc(NCc4cn(-c5ccccc5)nn4)cc3nc2-c2ccccc2)cc1
- IC50 [4]: 7.1 to 153 µM

Compound: Cc1ccc(OCc2cn(CCNc3ccnc4cc(Cl)ccc34)nn2)cc1C
- IC50 [1]: 0.9 to 11.5 µM
- IC50 [2]: 0.9 to 11.5 µM

Compound: Clc1ccc2c(NCCn3cc(COc4ccc(Br)cc4)nn3)ccnc2c1
- IC50 [1]: 0.9 to 11.5 µM
- IC50 [2]: 0.9 to 11.5 µM

Compound: Fc1ccc(-c2nc3ccc(NCc4cn(-c5ccc(F)cc5)nn4)cc3nc2-c2ccc(F)cc2)cc1
- IC50 [4]: 7.1 to 153 µM

Compound: OCc1cn(CCCNc2ccnc3cc(Cl)ccc23)nn1
- IC50 [1]: 0.59 to 4.71 µM
- IC50 [2]: 0.59 to 4.71 µM

Compound: COc1cccc(-n2cc(CN(Cc3cn(-c4cccc(OC)c4)nn3)c3ccc4nc(-c5ccc(F)cc5)c(-c5ccc(F)cc5)nc4c3)nn2)c1
- IC50 [4]: 9.76 to 3540 µM

Compound: C[C@@H]1CC[C@H]2[C@@H](C)C(=O)O[C@@H]3O[C@@]4(C)CC[C@@H]1[C@]32OO4 [ARTEMISININ]
- IC50 [1]: 0.25 µM
- IC50 [2]: 0.03 µM

Compound: COc1cccc(-n2cc(CNc3ccc4nc(-c5ccc(F)cc5)c(-c5ccc(F)cc5)nc4c3)nn2)c1
- IC50 [4]: 7.1 to 153 µM

Compound: FC(F)(F)c1cccc(-n2cc(CNc3ccc4nc(-c5ccccc5)c(-c5ccccc5)nc4c3)nn2)c1
- IC50 [4]: 7.1 to 153 µM

Compound: c1ccc(-c2nc3ccc(N(Cc4cn(-c5ccccc5)nn4)Cc4cn(-c5ccccc5)nn4)cc3nc2-c2ccccc2)cc1
- IC50 [4]: 9.76 to 3540 µM

Compound: O=C(CSc1nnc(Cc2ccccc2)n1-c1ccc(Cl)cc1)N1CCc2ccccc21
- IC50 [1]: 48.8 µM
- IC50 [7]: 48.8 µM

Compound: O=[N+]([O-])c1cccc(-n2cc(CNc3ccc4nc(-c5ccc(F)cc5)c(-c5ccc(F)cc5)nc4c3)nn2)c1
- IC50 [4]: 7.1 to 153 µM

Compound: COc1ccc(OCc2cn(CCNc3ccnc4cc(Cl)ccc34)nn2)cc1
- IC50 [1]: 0.9 to 11.5 µM
- IC50 [2]: 0.9 to 11.5 µM

Compound: CC(C)c1ccc(OCc2cn(CCNc3ccnc4cc(Cl)ccc34)nn2)cc1
- IC50 [1]: 0.9 to 11.5 µM
- IC50 [2]: 0.9 to 11.5 µM

Compound: O=C(CSc1nnc(Cc2ccccc2)n1-c1ccccc1)N1CCc2ccccc21
- IC50 [1]: 4.59 µM
- IC50 [7]: 4.59 µM

Compound: COc1cccc(-n2cc(CN(Cc3cn(-c4cccc(OC)c4)nn3)c3ccc4nc(-c5ccccc5)c(-c5ccccc5)nc4c3)nn2)c1
- IC50 [4]: 9.76 to 3540 µM

Compound: COc1ccc2cc3[n+](cc2c1OCc1cn(-c2ccc(S(=O)(=O)N4CCOCC4)cc2)nn1)CCc1cc2c(cc1-3)OCO2
- IC50 [3]: 0.142 to 28 µM

Compound: Cc1nnc(Cn2cc(C(=O)NNC(=O)Nc3ccccc3)c(=O)c3cc(F)c(Cl)cc32)n1N
- IC50 [8]: 3.89 µM

Compound: Fc1ccc(-c2nc3ccc(N(Cc4cn(-c5ccccc5)nn4)Cc4cn(-c5ccccc5)nn4)cc3nc2-c2ccc(F)cc2)cc1
- IC50 [4]: 9.76 to 3540 µM

Compound: Fc1ccc(-c2nc3ccc(NCc4cn(-c5ccccc5)nn4)cc3nc2-c2ccc(F)cc2)cc1
- IC50 [4]: 7.1 to 153 µM

Compound: CC(=O)c1ccc(OCc2cn(CCCNc3ccnc4cc(Cl)ccc34)nn2)cc1
- IC50 [1]: 1.14 µM
- IC50 [2]: 0.59 µM

Compound: Clc1ccc2c(NCCCn3cc(COc4ccc5ccccc5c4)nn3)ccnc2c1
- IC50 [1]: 0.59 to 4.71 µM
- IC50 [2]: 0.59 to 4.71 µM

Compound: Fc1ccc(-c2nc3ccc(N(Cc4cn(-c5cccc(C(F)(F)F)c5)nn4)Cc4cn(-c5cccc(C(F)(F)F)c5)nn4)cc3nc2-c2ccc(F)cc2)cc1
- IC50 [4]: 9.76 to 3540 µM

Compound: OC1(c2cn(CCCNc3ccnc4cc(Cl)ccc34)nn2)CCCCC1
- IC50 [1]: 0.59 to 4.71 µM
- IC50 [2]: 0.59 to 4.71 µM

Compound: Cc1ccc(-n2cc(CN(Cc3cn(-c4ccc(C)cc4)nn3)c3ccc4nc(-c5ccccc5)c(-c5ccccc5)nc4c3)nn2)cc1
- IC50 [4]: 9.76 to 3540 µM

Compound: Fc1ccc(-n2cc(CNc3ccc4nc(-c5ccccc5)c(-c5ccccc5)nc4c3)nn2)cc1
- IC50 [4]: 7.1 to 153 µM

Compound: COc1ccc2cc3[n+](cc2c1OCc1cn(-c2ccc(S(=O)(=O)N4CCCCC4)cc2)nn1)CCc1cc2c(cc1-3)OCO2
- IC50 [3]: 0.142 to 28 µM

Compound: COc1ccc2cc3[n+](cc2c1OCc1cn(-c2ccc(S(=O)(=O)Nc4ccc(Cl)cc4)cc2)nn1)CCc1cc2c(cc1-3)OCO2
- IC50 [9]: 0.142 µM
- IC50 [3]: 0.142 to 28 µM

Compound: O=[N+]([O-])c1cccc(-n2cc(CN(Cc3cn(-c4cccc([N+](=O)[O-])c4)nn3)c3ccc4nc(-c5ccc(F)cc5)c(-c5ccc(F)cc5)nc4c3)nn2)c1
- IC50 [4]: 9.76 to 3540 µM

Compound: COc1cccc(-n2cc(CNc3ccc4nc(-c5ccccc5)c(-c5ccccc5)nc4c3)nn2)c1
- IC50 [4]: 7.1 to 153 µM

Compound: Cc1ccc(OCc2cn(CCNc3ccnc4cc(Cl)ccc34)nn2)cc1
- IC50 [1]: 0.9 to 11.5 µM
- IC50 [2]: 0.9 to 11.5 µM

Compound: O=C(c1cn(CCNc2ccnc3cc(Cl)ccc23)nn1)C1CCCCO1 (stereo not given)
- IC50 [1]: 0.9 to 11.5 µM
- IC50 [2]: 0.9 to 11.5 µM

Compound: OC1(c2cn(CCNc3ccnc4cc(Cl)ccc34)nn2)CCCCC1
- IC50 [1]: 0.9 to 11.5 µM
- IC50 [2]: 0.9 to 11.5 µM

Compound: COc1ccc(NS(=O)(=O)c2ccc(-n3cc(COc4c(OC)ccc5cc6[n+](cc45)CCc4cc5c(cc4-6)OCO5)nn3)cc2)cc1
- IC50 [3]: 0.142 to 28 µM

Compound: COc1ccc2cc3[n+](cc2c1OCc1cn(-c2ccc(S(N)(=O)=O)cc2)nn1)CCc1cc2c(cc1-3)OCO2
- IC50 [3]: 0.142 to 28 µM

Compound: COc1ccc2cc3[n+](cc2c1OCc1cn(-c2ccc(S(=O)(=O)Nc4ccc(Br)cc4)cc2)nn1)CCc1cc2c(cc1-3)OCO2
- IC50 [3]: 0.142 to 28 µM

Compound: COc1ccc2cc3[n+](cc2c1OCc1cn(-c2ccc(S(=O)(=O)Nc4ccc([N+](=O)[O-])cc4)cc2)nn1)CCc1cc2c(cc1-3)OCO2
- IC50 [3]: 0.142 to 28 µM

Compound: O=[N+]([O-])c1cccc(-n2cc(CN(Cc3cn(-c4cccc([N+](=O)[O-])c4)nn3)c3ccc4nc(-c5ccccc5)c(-c5ccccc5)nc4c3)nn2)c1
- IC50 [4]: 9.76 to 3540 µM

Compound: O=[N+]([O-])c1cccc(-n2cc(CNc3ccc4nc(-c5ccccc5)c(-c5ccccc5)nc4c3)nn2)c1
- IC50 [4]: 7.1 to 153 µM

Compound: CC(=O)c1ccc(OCc2cn(CCNc3ccnc4cc(Cl)ccc34)nn2)cc1
- IC50 [1]: 0.9 to 11.5 µM
- IC50 [2]: 0.9 to 11.5 µM

Compound: Cc1nnc(Cn2cc(C(=O)NNC(=S)Nc3ccccc3)c(=O)c3cc(F)c(Cl)cc32)n1N
- IC50 [8]: 3.91 µM

Compound: Fc1ccc(-n2cc(CN(Cc3cn(-c4ccc(F)cc4)nn3)c3ccc4nc(-c5ccccc5)c(-c5ccccc5)nc4c3)nn2)cc1
- IC50 [4]: 9.76 to 3540 µM

Compound: Fc1ccc(-c2nc3ccc(N(Cc4cn(-c5ccc(F)cc5)nn4)Cc4cn(-c5ccc(F)cc5)nn4)cc3nc2-c2ccc(F)cc2)cc1
- IC50 [4]: 9.76 to 3540 µM

Compound: CC[C@H]1OC(=O)C[C@@H](O)[C@H](C)C(O[C@@H]2O[C@H](C)[C@@H](O)[C@H](N(C)C)[C@H]2O)C(CC=O)C[C@@H](C)C(=N\OCCCc2cn(-c3cnc4ccccc4c3)nn2)/C=C/C(C)=C/[C@@H]1CO[C@@H]1O[C@H](C)[C@@H](O)[C@@H](OC)[C@H]1OC (stereo not given in full)
- selectivity ratio [10]: 59
- MIC [5]: 0.5 to 1 µg/mL (≈ 0.489 to 0.977 µM)
- IC50 [4]: 0.73 µg/mL
- MIC [6]: 0.5 to 1 µg/mL (≈ 0.489 to 0.977 µM)
- selectivity ratio [11]: 59
- CC50 [12]: 43 µg/mL (≈ 42 µM)

Compound: Fc1ccc(-c2nc3ccc(NCc4cn(-c5cccc(C(F)(F)F)c5)nn4)cc3nc2-c2ccc(F)cc2)cc1
- IC50 [4]: 7.1 to 153 µM

Compound: FC(F)(F)c1cccc(-n2cc(CN(Cc3cn(-c4cccc(C(F)(F)F)c4)nn3)c3ccc4nc(-c5ccccc5)c(-c5ccccc5)nc4c3)nn2)c1
- IC50 [4]: 9.76 to 3540 µM

Compound: COc1ccc2cc3[n+](cc2c1OCc1cn(-c2ccc(S(=O)(=O)N4CCN(C)CC4)cc2)nn1)CCc1cc2c(cc1-3)OCO2
- IC50 [3]: 0.142 to 28 µM

Compound: Cc1ccc(-n2cc(CN(Cc3cn(-c4ccc(C)cc4)nn3)c3ccc4nc(-c5ccc(F)cc5)c(-c5ccc(F)cc5)nc4c3)nn2)cc1
- IC50 [4]: 9.76 to 3540 µM

Compound: O=[N+]([O-])c1ccc(OCc2cn(CCNc3ccnc4cc(Cl)ccc34)nn2)cc1
- IC50 [1]: 0.9 to 11.5 µM
- IC50 [2]: 0.9 to 11.5 µM

Compound: Cc1ccc(-n2cc(CNc3ccc4nc(-c5ccccc5)c(-c5ccccc5)nc4c3)nn2)cc1
- IC50 [4]: 7.1 to 153 µM
